Measurements taken from PMC5622079, “Control of leucine-dependent mTORC1 pathway through chemical intervention of leucyl-tRNA synthetase and RagD interaction” (Nature Communications, 2017).

Tests used:
[1] = target: T1, Leucyl-tRNA synthetase (LRS) (Homo sapiens, UniProt Q9P2J5); experiment: HDX-MS (with BC-LI-0198) and thermal shift; assay type: binding; design: gene LARS1; human full-length LRS, N-terminal His9-tag
[2] = target: T1, Leucyl-tRNA synthetase (LRS); experiment: SPR (Biacore T-200, immobilised His-LRS); assay type: binding; design: gene LARS1; His-LRS WT

T1 sequence (Q9P2J5 whole entry): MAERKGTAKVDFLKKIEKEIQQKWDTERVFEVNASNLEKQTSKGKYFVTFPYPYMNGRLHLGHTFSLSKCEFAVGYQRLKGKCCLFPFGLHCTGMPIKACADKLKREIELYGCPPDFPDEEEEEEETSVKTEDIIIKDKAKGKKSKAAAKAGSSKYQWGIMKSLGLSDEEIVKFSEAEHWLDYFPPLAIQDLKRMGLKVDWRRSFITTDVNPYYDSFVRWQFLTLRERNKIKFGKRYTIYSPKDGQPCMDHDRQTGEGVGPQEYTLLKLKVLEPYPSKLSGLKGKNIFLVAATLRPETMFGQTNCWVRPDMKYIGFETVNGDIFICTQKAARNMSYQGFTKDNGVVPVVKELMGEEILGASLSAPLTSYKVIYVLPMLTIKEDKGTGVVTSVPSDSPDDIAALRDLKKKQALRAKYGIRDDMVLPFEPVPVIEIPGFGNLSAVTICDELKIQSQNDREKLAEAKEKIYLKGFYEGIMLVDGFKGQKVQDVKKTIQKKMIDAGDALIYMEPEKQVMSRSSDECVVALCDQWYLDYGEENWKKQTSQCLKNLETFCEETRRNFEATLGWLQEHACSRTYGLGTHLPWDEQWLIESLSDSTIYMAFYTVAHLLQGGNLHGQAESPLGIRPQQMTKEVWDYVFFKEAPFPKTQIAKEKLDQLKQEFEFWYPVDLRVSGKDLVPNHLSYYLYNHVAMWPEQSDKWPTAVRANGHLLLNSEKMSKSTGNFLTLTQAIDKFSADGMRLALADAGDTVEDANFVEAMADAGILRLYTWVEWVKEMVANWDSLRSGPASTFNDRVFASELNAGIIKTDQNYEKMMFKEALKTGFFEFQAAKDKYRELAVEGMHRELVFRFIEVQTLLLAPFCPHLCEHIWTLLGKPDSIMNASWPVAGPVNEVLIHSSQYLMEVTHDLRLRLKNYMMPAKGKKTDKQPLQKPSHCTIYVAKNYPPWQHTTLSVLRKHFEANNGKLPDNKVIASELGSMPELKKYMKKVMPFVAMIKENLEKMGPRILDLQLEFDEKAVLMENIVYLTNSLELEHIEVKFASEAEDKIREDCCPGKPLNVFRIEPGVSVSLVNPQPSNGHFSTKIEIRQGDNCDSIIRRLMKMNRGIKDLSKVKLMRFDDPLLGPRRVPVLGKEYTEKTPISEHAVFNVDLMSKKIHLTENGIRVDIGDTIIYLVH

SMILES | HDX-MS (with BC-LI-0198) and thermal shift [1] | Kd [2] [µM]
CC(C)C[C@H](N)C(=O)NS(=O)(=O)OC[C@H]1O[C@@H](n2cnc3c(N)ncnc32)[C@H](O)[C@@H]1O [Leu-AMS] | HDX)-MS assays for LRS bound to BC-LI-0198 and Leu-AMS, a leucyl-sulfamoyl-adenylate analog of leucyl adenylate | 
Cc1c(C(C)C)c(=O)n(-c2ccc(S(=O)(=O)NCCOc3ccccc3)cc2)n1C [BC-LI-0186] |  | 0.0421
